# Laboratory results taken from EP4813989A1, “CRYSTAL, PHARMACEUTICAL COMPOSITION, PREPARATION METHOD THEREFOR, AND USE THEREOF” (TYK Medicines, Inc., priority 2023, dated 2025).
# Key:
# [1] = Solid form stability on standing (XRD/PLM); type: physicochemical
# Source text: The resulting solid sample was subjected to a corresponding characterization test. An XRD pattern of the sample can be seen in FIG. 8.
# A crystal form E sample was obtained by suspending and stirring the amorphous sample prepared in Example 2 in a 1,4-dioxane/n-heptane solvent system at room temperature. XRD results of the sample can be seen in FIG. 9. […] On this basis, it was inferred that the crystal form E was a metastable crystal form.
# XRD results of the sample can be seen in FIG. 17.
# XRD results of the sample can be seen in FIG. 20. TGA/DSC results can be seen in FIG. 21. […] An ^1H NMR spectrum of the crystal form D was obtained by a test in DMSO-d6, and no obvious solvent residue was observed. […] Based on nuclear magnetic resonance data and heating test results of the sample, it was inferred that the crystal form D was a hydrate crystal form.
# [2] = High-temperature test, related substances by HPLC; type: physicochemical; details: for Increase of impurity RRT0.66 content / Increase of impurity RRT1.02 content / Increase of impurity RRT1.08 content / Increase of total impurities / Impurity content RRT0.55 / Impurity content RRT0.66 / Impurity content RRT0.71 / Impurity content RRT0.94 / Impurity content RRT1.02 / Impurity content RRT1.06 / Impurity content RRT1.08 / Impurity content RRT1.15 / Total impurities: 50°C±2°C; for Impurity content RRT0.55 / Impurity content RRT0.66 / Impurity content RRT0.71 / Impurity content RRT0.94 / Impurity content RRT1.02 / Impurity content RRT1.06 / Impurity content RRT1.08 / Impurity content RRT1.15 / Total impurities: open
# Description: An investigation method for the high-temperature test can be seen in Table 11 below.
# Results of related substances in each crystal form under the high-temperature condition (50°C±2°C) can be seen in Table 15.
# HPLC detection results of related substances under the high-temperature condition: Table 15
smiles,measurement,setting,value
C[C@@H](Nc1ccn2ncc(C3=NOC(C)(C)N3)c2n1)c1cc(F)cc(F)c1F [amorphous form],Solid form stability,"[1]; ambient conditions (room temperature, >20%RH), overnight plus two days",unstable under ambient conditions
C[C@@H](Nc1ccn2ncc(C3=NOC(C)(C)N3)c2n1)c1cc(F)cc(F)c1F [crystal form A],Increase of impurity RRT0.66 content,[2]; 32 days,≤ 0.02%
same,Increase of impurity RRT1.02 content,[2]; 32 days,no obvious change
same,Increase of impurity RRT1.08 content,[2]; 32 days,0.05%
same,Increase of total impurities,[2]; 32 days,0.16%
same,Impurity content RRT0.55,[2]; 0 day,0.03%
same,Impurity content RRT0.66,[2]; 0 day,0.18%
same,Impurity content RRT0.71,[2]; 0 day,0.15%
same,Impurity content RRT0.94,[2]; 0 day,0.04%
same,Impurity content RRT1.02,[2]; 0 day,0.28%
same,Impurity content RRT1.06,[2]; 0 day,0.07%
same,Impurity content RRT1.08,[2]; 0 day,0.16%
same,Impurity content RRT1.15,[2]; 0 day,0.03%
same,Total impurities,[2]; 0 day,0.95%
same,Impurity content RRT0.55,[2]; 5 days,0.03%
same,Impurity content RRT0.66,[2]; 5 days,0.19%
same,Impurity content RRT0.71,[2]; 5 days,0.16%
same,Impurity content RRT0.94,[2]; 5 days,0.04%
same,Impurity content RRT1.02,[2]; 5 days,0.31%
same,Impurity content RRT1.06,[2]; 5 days,0.08%
same,Impurity content RRT1.08,[2]; 5 days,0.19%
same,Impurity content RRT1.15,[2]; 5 days,0.03%
same,Total impurities,[2]; 5 days,1.03%
same,Impurity content RRT0.55,[2]; 11 days,0.03%
same,Impurity content RRT0.66,[2]; 11 days,0.19%
same,Impurity content RRT0.71,[2]; 11 days,0.16%
same,Impurity content RRT0.94,[2]; 11 days,0.03%
same,Impurity content RRT1.02,[2]; 11 days,0.30%
same,Impurity content RRT1.06,[2]; 11 days,0.08%
same,Impurity content RRT1.08,[2]; 11 days,0.22%
same,Impurity content RRT1.15,[2]; 11 days,0.03%
same,Total impurities,[2]; 11 days,1.04%
same,Impurity content RRT0.55,[2]; 32 days,0.05%
same,Impurity content RRT0.66,[2]; 32 days,0.20%
same,Impurity content RRT0.71,[2]; 32 days,0.17%
same,Impurity content RRT0.94,[2]; 32 days,0.05%
same,Impurity content RRT1.02,[2]; 32 days,0.30%
same,Impurity content RRT1.06,[2]; 32 days,0.08%
same,Impurity content RRT1.08,[2]; 32 days,0.21%
same,Impurity content RRT1.15,[2]; 32 days,0.05%
same,Total impurities,[2]; 32 days,1.11%
same,Overall stability (conclusion),"[2]; compared with crystal form E and amorphous form, all four stress tests",the most stable crystal form
C[C@@H](Nc1ccn2ncc(C3=NOC(C)(C)N3)c2n1)c1cc(F)cc(F)c1F [crystal form E],Increase of impurity RRT0.66 content,[2]; 32 days,0.05%
same,Increase of impurity RRT1.02 content,[2]; 32 days,0.19%
same,Increase of impurity RRT1.08 content,[2]; 32 days,0.23%
same,Increase of total impurities,[2]; 32 days,0.51%
same,Impurity content RRT0.55,[2]; 0 day,0.04%
same,Impurity content RRT0.66,[2]; 0 day,0.21%
same,Impurity content RRT0.71,[2]; 0 day,0.14%
same,Impurity content RRT0.94,[2]; 0 day,0.03%
same,Impurity content RRT1.02,[2]; 0 day,0.21%
same,Impurity content RRT1.06,[2]; 0 day,0.07%
same,Impurity content RRT1.08,[2]; 0 day,0.17%
same,Impurity content RRT1.15,[2]; 0 day,0.03%
same,Total impurities,[2]; 0 day,0.89%
same,Impurity content RRT0.55,[2]; 5 days,0.03%
same,Impurity content RRT0.66,[2]; 5 days,0.22%
same,Impurity content RRT0.71,[2]; 5 days,0.15%
same,Impurity content RRT0.94,[2]; 5 days,0.03%
same,Impurity content RRT1.02,[2]; 5 days,0.27%
same,Impurity content RRT1.06,[2]; 5 days,0.05%
same,Impurity content RRT1.08,[2]; 5 days,0.24%
same,Impurity content RRT1.15,[2]; 5 days,0.03%
same,Total impurities,[2]; 5 days,1.03%
same,Impurity content RRT0.55,[2]; 11 days,0.04%
same,Impurity content RRT0.66,[2]; 11 days,0.22%
same,Impurity content RRT0.71,[2]; 11 days,0.13%
same,Impurity content RRT0.94,[2]; 11 days,0.03%
same,Impurity content RRT1.02,[2]; 11 days,0.30%
same,Impurity content RRT1.06,[2]; 11 days,0.06%
same,Impurity content RRT1.08,[2]; 11 days,0.29%
same,Impurity content RRT1.15,[2]; 11 days,0.03%
same,Total impurities,[2]; 11 days,1.10%
same,Impurity content RRT0.55,[2]; 32 days,0.04%
same,Impurity content RRT0.66,[2]; 32 days,0.26%
same,Impurity content RRT0.71,[2]; 32 days,0.14%
same,Impurity content RRT0.94,[2]; 32 days,0.05%
same,Impurity content RRT1.02,[2]; 32 days,0.40%
same,Impurity content RRT1.06,[2]; 32 days,0.05%
same,Impurity content RRT1.08,[2]; 32 days,0.40%
same,Impurity content RRT1.15,[2]; 32 days,0.05%
same,Total impurities,[2]; 32 days,1.40%
same,Solid form stability,"[1]; air-dried, open storage at room temperature, approximately 1 day",transformed into the crystal form A
